# Measurements: ChEMBL document CHEMBL3507680, “University of Dundee, Gates Library screen for HepG2 cell viability”
# Test: Human HepG2 cell viability assay in 384 well format
# Type: toxicity, cell-based
# Design: dose 125 nL, time 70.5 hour; cytotoxicity at 70.5 h: concentration not given beside the values
# Conditions: HepG2 cells, read-out: Inhibition
row,Structure (SMILES),cytotoxicity at 70.5 h
1,Cc1cc(C)n(CC(=O)N2CCCCC2CCc2cccs2)c(=O)n1 (configuration not stated),-13.4%
2,CN1CC2(COCCN(c3ncccn3)C2)OCC1=O (configuration not stated),-11.5%
3,CC(C(=O)N1CCC(c2[nH]ncc2-c2ccccc2)CC1)n1cncn1 (configuration not stated),-9.13%
4,CSc1ccc(C(=O)N2CC(=O)N(CC3CC3)CC(O)C2)cc1 (configuration not stated),2.74%
5,CC(C)N(C)C(=O)C1CCC2(CCNCC2)O1 (configuration not stated),5.71%
6,CC(CS(C)(=O)=O)N(C(=O)CCc1cccc(F)c1)C1CC1 (configuration not stated),12.6%
7,CN(C)S(=O)(=O)N1CC[C@]2(O)CCN(Cc3cc(F)cc(F)c3)C[C@@H]2C1,10.9%
8,O=C(Cc1ccc2c(c1)OCCO2)NCc1ccc(-n2cncn2)nc1,-2.42%
9,CCn1c(C)cc(C(=O)N2CCCC(C(=O)c3nccn3C)C2)c1C (configuration not stated),19.6%
10,NC(=O)C1(Cc2ccc(-c3ccccc3)cc2)CCNC1 (configuration not stated),36.2%
11,CCc1nc(CNC2CCCc3c2cnn3CC)cs1 (configuration not stated),6.14%
12,c1ccc(-c2ncc(CN3CCCCC3CCn3cccn3)cn2)nc1 (configuration not stated),-4.71%
13,Cc1cc(C)n(CCNC(=O)c2cc(C3CC3)n[nH]2)n1,-4.88%
14,CCOCCCNC(=O)C1(C)CCC(=O)N1c1ccccc1OC (configuration not stated),-8.49%
15,Cc1nccc([C@@H]2C[C@@H]3CCN(Cc4c(C)noc4C)C[C@H]3O2)n1,-10.7%
16,Cc1ncc2c(n1)CN(CC(=O)Nc1nncs1)CC2,-6.76%
17,Cc1sc2nc(CCN)nc(N(CCN(C)C)CC3CCCO3)c2c1C (configuration not stated),5.16%
18,COc1cccc(CN2CCC3(CC2)CCN(c2ncccn2)C3)c1,2.21%
19,CCO[C@H]1CN(C)C[C@@H]1NC(=O)c1cc(C)nc2c(C)c(C)ccc12,-6.51%
20,Cc1nc(S(=O)(=O)N2CCCCc3ccccc32)cn1C,9.73%
21,O[C@@H]1C[C@@](CNCc2cccc(Cl)c2)(COc2cnccn2)C[C@@H]1O,-12%
22,COc1ccc(CC(=O)Nc2ccc3ncn(C(C)C)c(=O)c3c2)cc1,-5.16%
23,CCCC(=O)NCCc1cc(N2CCN(C(C)=O)CC2)nc(C2CC2)n1,-6.31%

row,Structure (SMILES),cytotoxicity at 70.5 h
1,Cc1cccc(CN2Cc3[nH]nc(COCc4nccs4)c3C2)n1,-0.324%
2,COc1ccc(C)cc1-c1csc(Cn2ccc(=O)[nH]c2=O)n1,2.92%
3,CC(C)C(NC(=O)Nc1ccc(F)cc1)C(=O)N(C)C (configuration not stated),3.02%
4,COc1ccc(OC)c(C2C3=C(COC3=O)Nc3[nH]nc(C)c32)c1 (configuration not stated),32%
5,CC(C)Nc1nc(-c2ccccc2)nc2c1CCN(C(=O)C1CC1)CC2,-9.57%
6,NCCSc1nccc(-c2cnc(C3CC3)nc2-c2ccco2)n1,21.8%
7,COc1ccc(S(=O)(=O)N2CCn3nc(C)nc3C2)cc1C,-5.13%
8,O=C(CCc1cn[nH]c1)N1C[C@@H](CN2CCCCCC2)[C@@H](CO)C1,-8.48%
9,CCc1n[nH]c(=O)c(C(=O)N2CCSCC2)c1CC,-9.39%
10,Cc1c(-c2ccccc2)ncn1CCCNc1cccnc1,-4.84%
11,Cc1noc(C)c1CNCC1CCN(CC(O)c2ccccc2)CC1 (configuration not stated),2.35%
12,CCn1cc(S(=O)(=O)N(C)Cc2c(Br)cnn2CC)c(C)n1,1.71%
13,CN(C)c1cccc(C(=O)N2CCn3c(nnc3C3CC3)C2)c1,19.2%
14,Cc1ccccc1CSCCn1nc2ccccn2c1=O,-9.36%
15,CC(C)NC(=O)C1CN(C(=O)COc2ccccc2)CC12CCOCC2 (configuration not stated),-9.68%
16,CCCNC(=O)C(C)NC(=O)CCc1ccccc1Br (configuration not stated),-6.3%
17,Cc1nn(C)c(C)c1C1CCCN1Cc1noc(C2CC2)n1 (configuration not stated),7.14%
18,COc1ccc(CN2CCn3c(C(=O)N(C)C)cnc3C2)cc1,-3.13%
19,Cc1c(C2CC2)n[nH]c1NC(=O)C1CCCN(C(=O)NCC(C)C)C1 (configuration not stated),-4.52%
20,O=C(C1CCC1)N1CCN(Cc2ccccc2F)[C@H]2CS(=O)(=O)C[C@H]21,-4.65%
21,CC(C)CC(CO)NC(=O)NCc1csc(N(C)C)n1 (configuration not stated),0.865%
22,CC(CS(C)(=O)=O)N(C(=O)c1ccc(Cl)s1)C1CC1 (configuration not stated),-9.46%
23,Cc1csc(N2CCCN(C3Cc4ccccc4C3)CC2)n1,-15.6%

row,Structure (SMILES),cytotoxicity at 70.5 h
1,Cc1ccc(F)cc1NC(=O)c1[nH]ncc1Br,-7.98%
2,Fc1cc(CN2CCOC3(CCOCC3)C2)ccc1OC(F)F,-3.49%
3,Cc1cccc(N(CCC(N)=O)C(=O)c2cc(-n3cccn3)ccn2)c1,-12%
4,CC1(C)[C@H](Cc2cc(CN3CCCCC3)on2)C[C@@H]1NC(=O)C1CC1,10.2%
5,CCOCC1CN(Cc2ccsc2)Cc2cnn(C)c21 (configuration not stated),-0.486%
6,Cn1ncc(C2CC(=O)NCc3nc4ccccn4c32)c1C1CC1 (configuration not stated),-11.4%
7,Cc1ccc(N2CCCC(N(C)Cc3nnc(C4CC4)o3)C2)nn1 (configuration not stated),-5.49%
8,OCC1CCCN1c1cc(NCCc2ccsc2)ncn1 (configuration not stated),-15.1%
9,CC1CCCCN1c1nc2c(c(=O)[nH]1)CCN(Cc1ccccc1F)C2 (configuration not stated),-5.68%
10,CN(C)Cc1noc2c1CN(C(=O)c1ccncc1)CC2,5.83%
11,O=C(NC1CC1)C1CN(Cc2ccc3c(c2)OCCO3)CCN1 (configuration not stated),-11.1%
12,CCC(CC)C(O)CNC(=O)Cc1c[nH]c2ncccc12 (configuration not stated),-4.44%
13,CCCNC(=O)N1CCc2ccc(S(=O)(=O)N3CCOCC3)cc2C1,-16.2%
14,Cc1cc(C(=O)NCc2cnn(C)c2C)nc(N2CCCCCC2)n1,-3.96%
15,COc1ccc(C(=O)C2CCCN(Cc3ccccc3O)C2)c(OC)c1 (configuration not stated),35.7%
16,Cc1nn(C)cc1CN1CCN(CC2(c3ccccc3)CC2)CC1,-1.67%
17,COCCNC(=O)[C@@H]1CC[C@@H]2[C@@H](CCN2Cc2cnn(C)c2)O1,-18.7%
18,COc1cccc(CNC(=O)C(C)n2ccnc2C(C)C)c1OC (configuration not stated),23.8%
19,CC(C)N(CC(N)=O)Cc1csc(COc2ccc(F)cc2)n1,43.4%
20,OCCNc1nc(NCCc2ccccc2)nc2nccnc12,-1.57%
21,CN(Cc1ccc(C(N)=O)cc1)c1ccc(C(F)(F)F)cn1,-2.07%
22,CSCCC(=O)N1CCCC(n2ccnc2)C1 (configuration not stated),-6.36%
23,COC(=O)c1ccc2ccn(CC3CCCN(C)C3)c(=O)c2c1 (configuration not stated),25.4%

row,Structure (SMILES),cytotoxicity at 70.5 h
1,CCc1nccn1C1CCCN(C(=O)CCCNc2ncccn2)C1 (configuration not stated),-1.35%
2,CN1C[C@@H]2CC[C@H](C1)N(Cc1ccccc1OCCN1CCOCC1)C2,1.83%
3,CCc1nc2n(n1)CCCC2NC(=O)Nc1cccc(F)c1F (configuration not stated),4.24%
4,CCOC(=O)C1CN(C(=O)COC)Cc2ncn(CC)c21 (configuration not stated),-5.03%
5,COCC(=O)N1C[C@H]2CC[C@@]3(N=C(c4ccccc4)NC3=O)[C@H]2C1,-3.3%
6,Cc1noc(C)c1CN1CCc2cnn(C)c2C1COCC1CC1 (configuration not stated),-3.84%
7,c1cnc(NCc2n[nH]c3c2CCN(Cc2cccnc2)C3)nc1,-12.3%
8,CC(C)S(=O)(=O)C(C)C(=O)Nc1ccc2oc(C3CC3)nc2c1 (configuration not stated),-2.28%
9,CN(Cc1cccnc1)[C@@H]1CN(C(=O)c2ccoc2)[C@@H]2CCCO[C@H]12,-11.9%
10,COc1ccccc1CC(=O)NCc1c(C)nc2cc(=O)[nH]n2c1C,-8.5%
11,COc1ccc(CC(=O)N(C)c2cccnc2N(C)C)c(Cl)c1,-1.15%
12,O=S1(=O)NCC2(CCN(Cc3ccncc3)CC2)Oc2ncccc21,23.1%
13,O=C(Nc1ccc2c(c1)OCCO2)c1ccc(=O)[nH]n1,15.5%
14,CN1CCc2nc3cc(C(=O)NCc4cccs4)ccc3c(=O)n2CC1,-2.15%
15,O=C(C1CCC1)N1CCO[C@@H]2CNC[C@@H]21,12.9%
16,CCOCC(=O)N(Cc1ccco1)c1ccc(OC)c(F)c1,-5.82%
17,CN(C)CCOCc1nnc2n1CCN(Cc1ccsc1)C2,2.24%
18,CC(=O)NCc1cc2n(n1)CCN(Cc1cccc(CCN)c1)C2,-2.57%
19,O=C(N1CCOCC1CO)C1(c2cccs2)CCCC1 (configuration not stated),-4.96%
20,O=C(NC[C@]1(O)CN(Cc2ncccc2F)C[C@H]1O)c1cc[nH]n1,21.3%
21,CO[C@@H]1CCN(Cc2ccoc2)[C@H]1Cc1ccccc1,-5.28%
22,CC(O)CN1CCN(C(=O)CN(C)c2cnccn2)CC1 (configuration not stated),-8.51%
23,Cc1ccc(NC2CCN(C(=O)Cc3c(C)nn(C)c3C)CC2)nn1,-1.21%

row,Structure (SMILES),cytotoxicity at 70.5 h
1,CSc1ccc(CN(C(=O)c2cc[nH]n2)C2CC2)cc1,-7.21%
2,O=C(CCNS(=O)(=O)c1ccccc1)NCc1ccoc1,-9.84%
3,c1ccc(-c2nc(CN3CCOC(Cn4cccn4)C3)co2)cc1 (configuration not stated),4.42%
4,O=C(c1cc(Cl)ccc1OC1CCN(C2CCCC2)CC1)N1CCCO1,11.8%
5,COc1ccc(C[C@H]2CN(Cc3ccoc3)CC[C@H]2OC)cc1,-0.279%
6,c1ncn(CC2CCCCN2Cc2csc(C3CCCC3)n2)n1 (configuration not stated),33.9%
7,O=C(c1ccccn1)N1CCC2(COc3ncccc3S(=O)(=O)N2)C1 (configuration not stated),-5.57%
8,Cc1ccc(C(=O)Nc2c(C(=O)N(C)C)nn(C)c2C)cc1C,-4.41%
9,CCC(CO)N(Cc1ccco1)C(=O)c1ccc(F)cc1Cl (configuration not stated),-2.27%
10,Cc1cnc(-c2nc(NC3CC3)ncc2-c2onc(C)c2C)cn1,-4.72%
11,CC1CCCCN1C(=O)c1ccc(=O)[nH]n1 (configuration not stated),-5.98%
12,Cc1cc(NC(=O)CNC2CCc3nc(C(C)C)nn3C2)no1 (configuration not stated),-6.53%
13,O=C(NCc1cccc(C(F)(F)F)c1)C(c1cccnc1)N1CCCC1 (configuration not stated),-4.98%
14,Cc1nc(-c2ccoc2)n(CC(=O)NCC(C)C)c1C,1.09%
15,COCCN(C)C[C@@H]1CN(C(=O)C(C)(C)c2ccccc2)C[C@@H]1CO,12.6%
16,COc1ccccc1NC(=O)CC(C)NCCc1sc(C)nc1C (configuration not stated),8.63%
17,CS(=O)(=O)c1nccn1Cc1ccc(OC(F)F)cc1,-4.68%
18,Cc1ccc2nnc(C(=O)NCC3CCCC3)nc2c1,-0.847%
19,O=C(NCCc1c[nH]cn1)c1ccc2c(c1)C(=O)N(C1CC1)C2=O,3.29%
20,c1cc2c(cc1CN1CC[C@H]3CO[C@H](CN4CCCC4)[C@H]3C1)OCO2,-1.72%
